The text below walks through data of article PMC8780741, “Integration of In Silico, In Vitro and In Situ Tools for the Preformulation and Characterization of a Novel Cardio-Neuroprotective Compound during the Early Stages of Drug Development” (Pharmaceutics, 2022).

The target of series [1] is T1, P-glycoprotein transporter (MDR1) (Homo sapiens, UniProt P08183).
T1 construct: expressed in transfected cells; host or cells: MDCK-MDR1 (transfected clone of Madin-Darby Canine Kidney cells)
The series can be described thus: P-glycoprotein substrate assessment (B-A permeability MDCK-MDR1 vs MDCK). Type of series: in vitro ADME. Particulars: B-A permeability higher in MDCK-MDR1 than in MDCK (p < 0.05). The method, then: MDCK (Madin–Darby Canine Kidney) cells, their transfected clone MDCK-MDR1, and Caco-2 cells were grown in the modified Dulbecco Eagle medium added with L-glutamine, fetal bovine serum and penicillin−streptomycin. The number of cells seeded in transwells with a surface area of 4.2 cm^2 depended on the cell line: 250,000 cells/cm^2 for MDCK and Caco-2 and 150,000 cells/cm^2 for MDCK-MDR1. Experiments were performed between 7 and 9 days for MDCK and MDCK-MDR1 and between 19 and 21 for Caco-2 cells after seeding. Prior to drug placement, cell monolayer integrity was assessed by measuring transepithelial electrical resistance (TEER). Transport studies were performed on an orbital shaker at 37 °C and 50 rpm. Four samples of 200 μL were taken from the receptor side at 0, 15, 30, 60 and 90 min, and two samples from the donor compartment at the beginning and end of the experiment. A standard experiment was performed with the same buffer for the apical and basolateral compartments in the apical to basolateral (A-B) and basolateral to apical (B-A) directions. The drug concentration was 100 μM in all experiments and samples were analyzed immediately by HPLC. The retention time was 2.3 min at maximum wavelengths (λmax = 260 nm). […] The lower limit of quantitation of JM-20 was adequate to interpolate the values obtained in the samples. […]

On the set-up of series [2]: method as in earlier work. Particulars: pH 4.5 and 6.8, 24 h, 37 ± 1°C; cited from earlier work.
The nature of series [3]: Provisional BCS classification. On the set-up: key: drugs with high solubility/high permeability (Class 1); drugs with low solubility/high permeability (Class 2); drugs with high solubility/low permeability (Class 3); drugs with low solubility/low permeability (Class 4). From the text: The Biopharmaceutics Classification System (BCS) is a widely used scientific framework for waiver of in vivo bioequivalence studies, as well as for decision-making in drug discovery and development. This tool classifies drug substances according to solubility/dosage and permeability values as follows: drugs with high solubility/high permeability (Class 1), drugs with low solubility/high permeability (Class 2), drugs with high solubility/low permeability (Class 3) and drugs with low solubility/low permeability (Class 4). BCS has proven to be a very important tool for the identification of compounds whose solubility and absorption characteristics may be sensitive to physiological and formulation variables, allowing early optimization in the preformulation stages from the knowledge of the physicochemical properties of the active pharmaceutical ingredient (API). In this sense, it is evident that new compounds with low permeability and solubility/dissolution will have low and highly variable oral bioavailability, which may limit the chances of developing a clinically useful product.
Different provisional biopharmaceutical classification systems have been described in the literature. They mainly use alternative methodologies to predict intestinal permeability. Following the proposal of Kasim et al., JM-20 is a BCS Class 2, based on the aqueous solubility value at room temperature and in silico partition coefficients (log P and ClogP). JM-20 is also classified as BCS class 2 compound by the method proposed by Pham-The et al. where a provisional biopharmaceutical classification was developed based on solubility data (dose number, Do) and predicted or measured permeability in Caco-2 cells. At the same time, permeability values of JM-20 obtained with in vitro cell lines and in situ perfusion in rat were considered for the biopharmaceutical classification of this compound.

Another series relates to rat small intestine. The series can be described thus: In situ closed-loop (Doluisio) intestinal perfusion. The following applies: 100 µM, n = 4. In kind it is in vivo. The procedure: The animal experiments, performed on 250–300 g male Wistar rats, were designed following the guidelines described in EC Directive 86/609, Council of the Europe Convention ETS 123 and Spanish national laws about the use of animals in research, and were approved by the Spanish Committee (Spain, code A1330354541263).
The “closed-loop” in situ perfusion method, based on the Doluisio technique, was performed according to published reports. Briefly, in anesthetized rats in which an abdominal incision was made, the small intestine was located and the bile duct was ligated avoiding enterohepatic circulation of the drug. The procedure for making three loops in the duodenum, jejunum, and ileum was the same as previously described. Intestinal contents were removed by washing with physiological solutions and the peritoneal cavity was covered with cotton wool pads to prevent evaporation of peritoneal fluid and loss of body heat.
A solution of JM-20 (100 µM) was perfused with one syringe, and 5 min later the sample was collected with the other syringe. This procedure was performed alternatively for 30 min to ensure mixing of the solution in the lumen of small intestine. Samples were immediately analyzed for JM-20 at maximum wavelengths (λmax = 262 nm) by HPLC (Alliance-Waters 2695) using a Nova-Pak C18 column (4 μM, 3.9 × 150 mm) and UV detector (Waters 2487). The analytical procedure was as follows previously validated. The exact length of the intestine was determined at the end of the study.
The calculation of permeability takes into account that water flux during the experiment can be significant, the drug concentration in each sample was modified according to the following Equation (3):(3) C=CeVT/V0 where Ct represents the concentration without water reabsorption at time t, Ce is the experimental concentration value, V0 is the initial volume and Vt is the final volume. The coefficient of absorption rate (ka) and the initial concentration of JM-20 available for absorption (C0) were determined by non-linear regression of the following Equation (4):(4) Ct=C0·e^−kat […]

Each structure is given as a SMILES string.

T1 sequence (P08183 whole entry): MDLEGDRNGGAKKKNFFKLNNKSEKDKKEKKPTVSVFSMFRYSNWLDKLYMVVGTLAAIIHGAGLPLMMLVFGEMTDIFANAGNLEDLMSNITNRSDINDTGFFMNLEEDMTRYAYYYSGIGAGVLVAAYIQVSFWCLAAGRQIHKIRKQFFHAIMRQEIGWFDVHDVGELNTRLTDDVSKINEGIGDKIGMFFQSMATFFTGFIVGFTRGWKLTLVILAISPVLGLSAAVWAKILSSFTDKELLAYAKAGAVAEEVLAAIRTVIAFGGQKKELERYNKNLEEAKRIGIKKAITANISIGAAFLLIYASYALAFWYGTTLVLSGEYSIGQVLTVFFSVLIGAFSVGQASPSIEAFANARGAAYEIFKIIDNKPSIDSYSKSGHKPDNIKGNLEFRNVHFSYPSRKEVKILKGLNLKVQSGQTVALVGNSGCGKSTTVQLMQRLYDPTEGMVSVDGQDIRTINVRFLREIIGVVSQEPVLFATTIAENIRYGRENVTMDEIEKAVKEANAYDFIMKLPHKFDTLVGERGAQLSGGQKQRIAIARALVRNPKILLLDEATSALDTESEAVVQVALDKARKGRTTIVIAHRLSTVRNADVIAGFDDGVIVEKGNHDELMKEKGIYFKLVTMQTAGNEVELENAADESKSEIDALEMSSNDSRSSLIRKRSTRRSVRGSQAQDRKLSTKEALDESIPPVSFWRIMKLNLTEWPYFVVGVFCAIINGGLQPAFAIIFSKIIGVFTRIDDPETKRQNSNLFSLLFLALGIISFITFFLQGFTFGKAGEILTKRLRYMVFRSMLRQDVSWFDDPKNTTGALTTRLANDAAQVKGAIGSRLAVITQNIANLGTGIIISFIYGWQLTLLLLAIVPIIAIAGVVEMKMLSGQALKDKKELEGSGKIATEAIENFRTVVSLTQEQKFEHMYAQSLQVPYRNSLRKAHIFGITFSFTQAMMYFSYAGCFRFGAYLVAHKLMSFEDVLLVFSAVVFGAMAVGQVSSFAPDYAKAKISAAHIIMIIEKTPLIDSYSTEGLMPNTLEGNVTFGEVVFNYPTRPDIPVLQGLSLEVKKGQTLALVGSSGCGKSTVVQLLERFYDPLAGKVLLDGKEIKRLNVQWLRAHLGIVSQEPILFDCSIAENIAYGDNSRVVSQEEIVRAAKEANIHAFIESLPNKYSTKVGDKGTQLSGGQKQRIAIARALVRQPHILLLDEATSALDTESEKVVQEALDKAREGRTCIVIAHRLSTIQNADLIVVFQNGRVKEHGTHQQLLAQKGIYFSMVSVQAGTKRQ

Consider `CCOC(=O)C1=C(C)NC2=C(C=Nc3ccccc3N2)C1c1ccccc1[N+](=O)[O-]` (stereo not drawn) [JM-20, 3-ethoxycarbonyl-2-methyl-4-(2-nitrophenyl)-4,11-dihydro-1H-pyrido [2,3-b][1,5] benzodiazepine], for which the “Substrate of the P-glycoprotein transporter (MDR1)” value in series [1] is recorded as “substrate of the P-glycoprotein transporter (MDR1)”. Further, the “Qualitative stability in aqueous medium” value in series [2] is on record as “some degradation”. This compound also registered a BCSCaco-2 in series [3] (BCS class from dose number and Caco-2 permeability) of 2. For the same compound, in series [3] (BCS class from dose number and MDCK permeability), the BCSMDCK was 2. Also, in series [3] (BCS class from dose number and rat in situ permeability), the BCSrat turned out to be 2. Also, in series [3] (overall provisional BCS class), the BCSGlobal was found to be 2. The “Peff ± SD” value in the series on rat small intestine (Duodenum) is 9.20 ± 0.89 ×10^−5 cm/s; in the series with rat small intestine (Ileum), 6.82 ± 1.44 ×10^−5 cm/s; in the series on rat small intestine (Jejunum), 6.63 ± 1.30 ×10^−5 cm/s.
